We go through nine compounds from patent US20250042922A1, “KRAS MODULATING COMPOUNDS” (priority 2023, published 2025).

Assay [1] addresses GDP-loaded KRAS-G12C (Homo sapiens, UniProt P01116, G12C). The assay is described as follows: KRAS (GDP) biochemical TR-FRET probe displacement assay, G12C. The class given is binding. As to conditions: 2 hours. The method, then:
(§1) Compounds are tested for binding to GDP-loaded wild-type KRAS (WT), KRAS-G12C, KRAS-G12D, and KRAS-G12V in a 384-well assay format using a TR-FRET probe displacement assay in buffer consisting of 50 mM Hepes (pH 7.4), 150 mM NaCl, 5 mM MgCl2 and 0.005% Tween-20. […] Compounds are serially diluted (1:3) in DMSO. The LabCyte ECHO Acoustic dispenser was used to pre-spot the assay plates (384-well Non-Binding Surface plates, Corning, Catalog #3824) with 50 nL of compound. 5 μL of 2X enzyme concentration is added to the pre-spotted plates and incubated for 30 minutes before adding 5 μL of 2X concentration of Eu-streptavidin and Cy-5 labelled probe (10 μL final reaction volume). The plates are incubated at room temperature for 2 hours before measuring TR-FRET ratio (665 nm/615 nm) on the Envision multimode plate reader. The ratios are normalized to a positive (saturating concentration of known inhibitor) and negative (DMSO) control and plotted against the log of compound concentration.

The target in assay [2] is GDP-loaded KRAS-G12D (Homo sapiens, UniProt P01116, G12D). The assay is described as follows: KRAS (GDP) biochemical TR-FRET probe displacement assay, G12D. Type of assay: binding. As to conditions: 2 hours. The method, then: as §1
(Time-resolved FRET reads energy transfer from a long-lived donor to a nearby acceptor.)

Assay [3] concerns the target GDP-loaded KRAS-G12V (Homo sapiens, UniProt P01116, G12V). The assay is described as follows: KRAS (GDP) biochemical TR-FRET probe displacement assay, G12V. Conditions: 2 hours. The class given is binding. The method, then: as §1
Assay [4] deals with cellular pERK in Kuramochi (WT KRAS) cells. The assay is described as follows: Cell based pERK assay, Kuramochi. Conditions: read-out: Kuramochi pERK EC50. In outline:
(§2)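 Cells seeded overnight (5000 AsPC-1 or 7500 others per well; RPMI/10% FBS, DMEM/10% FBS for MIA-PaCa-2), treated with 1:3 serial dilutions for 2 h at 37 °C. Phospho-ERK1/2 (Thr202/Tyr204) measured by HTRF (665/615 nm) after overnight lysis, normalized to DMSO and saturating known-inhibitor controls.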

Assay [5] deals with cellular pERK in ASPC-1 (KRAS G12D) cells. The assay is described as follows: Cell based pERK assay, ASPC-1. As to conditions: Homo sapiens, read-out: AsPC1 pERK EC50. The method in brief:
as §2

For assay [6], the system named is cellular pERK in NCI-H441 (KRAS-G12V) cells. The assay is described as follows: Cell based pERK assay, NCI-H441. Conditions: Homo sapiens, read-out: H441 PERK EC50. The method in brief:
as §2

The test system of assay [7] is cellular pERK in MIA-PaCa-2 (KRAS-G12C) cells. The assay is described as follows: Cell based pERK assay, MIA-PaCa-2. Conditions: Homo sapiens, read-out: MIAPaCa2 pERK EC50. The method in brief: as §2
For assay [8], the target named is GDP-loaded wild-type KRAS (WT) (Homo sapiens, UniProt P01116). The assay is described as follows: KRAS (GDP) biochemical TR-FRET probe displacement assay, WT. As to conditions: 2 hours. Type of assay: binding. The method, then: as §1
[9] abbreviates: Kuramochi (WT KRAS), 2 hours incubation, HTRF phospho-ERK1/2.
Setting [10] is: ASPC1, ASPC-1 (KRAS G12D), 2 hours incubation, HTRF phospho-ERK1/2.
The mark [11] stands for this setting: NCI-H441 (KRAS-G12V), 2 hours incubation, HTRF phospho-ERK1/2.
Where [12] appears, read: MIA-PaCa-2 (KRAS-G12C), 2 hours incubation, HTRF phospho-ERK1/2.

Where two headings read alike, the source gives them in different places. Bounds are passed on as bounds.

By IC50 is commonly meant the concentration that gives 50% inhibition. A word on the EC50: it is the concentration needed to bring the measured effect to its halfway point.

Sequence of GDP-loaded KRAS-G12C (P01116 1-188 isoform P01116-2 G12C): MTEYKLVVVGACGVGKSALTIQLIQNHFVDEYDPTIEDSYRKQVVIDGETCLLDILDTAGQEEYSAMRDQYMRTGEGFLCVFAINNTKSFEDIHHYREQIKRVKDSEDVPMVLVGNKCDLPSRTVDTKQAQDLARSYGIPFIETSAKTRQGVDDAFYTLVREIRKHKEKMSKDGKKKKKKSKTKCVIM
Sequence of GDP-loaded KRAS-G12D (P01116 1-188 isoform P01116-2 G12D): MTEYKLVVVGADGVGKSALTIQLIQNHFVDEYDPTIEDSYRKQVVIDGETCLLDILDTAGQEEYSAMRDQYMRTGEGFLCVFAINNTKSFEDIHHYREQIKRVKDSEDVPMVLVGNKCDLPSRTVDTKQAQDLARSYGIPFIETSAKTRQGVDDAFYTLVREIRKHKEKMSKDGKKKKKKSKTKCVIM
Sequence of GDP-loaded KRAS-G12V (P01116 1-188 isoform P01116-2 G12V): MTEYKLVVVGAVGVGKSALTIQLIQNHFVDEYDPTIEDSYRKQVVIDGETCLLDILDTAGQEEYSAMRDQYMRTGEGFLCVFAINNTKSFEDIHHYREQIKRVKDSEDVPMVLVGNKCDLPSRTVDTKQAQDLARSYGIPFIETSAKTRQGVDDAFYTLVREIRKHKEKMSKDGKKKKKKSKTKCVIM
Sequence of GDP-loaded wild-type KRAS (WT) (P01116 1-188 isoform P01116-2): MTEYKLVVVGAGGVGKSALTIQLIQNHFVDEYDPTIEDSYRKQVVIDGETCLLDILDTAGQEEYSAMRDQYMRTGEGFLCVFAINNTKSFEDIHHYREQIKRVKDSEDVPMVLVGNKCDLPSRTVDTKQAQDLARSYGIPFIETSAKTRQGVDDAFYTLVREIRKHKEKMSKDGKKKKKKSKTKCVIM

On to `C[C@H]1Cc2nc(-c3cc(O)cc4ccc(F)c(F)c34)c(F)c3nc(OCC45CCCN4CCC5)nc(c23)N2C[C@@]3(F)CC[C@](F)(N3)[C@H]12` [Example 4-12, 5,6-difluoro-4-((5S,5aS,6R,9S)-1,6,9-trifluoro-5-methyl-12-((tetrahydro-1H-pyrrolizin-7a(5H)-yl)methoxy)-4,5,5a,6,7,8,9,10-octahydro-3,10a,11,13,14-pentaaza-6,9-methanonaphtho[1,8-ab]eptalene-2-yl)naphthalen-2-ol], for which the IC50 was 0.172 nM in assay [1], 1.16 nM in assay [2], 0.353 nM in assay [3] and 0.086 nM in assay [8]. For the same compound, the half-maximal effective concentration (EC50) in assay [4] (2 h) came out at 1.71 nM; in assay [5] (ASPC1, 2 h) it was 29 nM; in assay [6] (NCI-H441, 2 h) it was 3.7 nM; in assay [7] (MIA PaCa-2, 2 h) it was 0.944 nM.
With `Cc1c(F)c(N)cc(-c2nc3c4c(nc(OCC56CCCN5CCC6)nc4c2F)N2C[C@@]4(F)CC[C@](F)(N4)[C@@H]2[C@@H](C)C3)c1C(F)(F)F` [Example 4-13, 2-fluoro-3-methyl-5-((5S,5aS,6R,9S)-1,6,9-trifluoro-5-methyl-12-((tetrahydro-1H-pyrrolizin-7a(5H)-yl)methoxy)-4,5,5a,6,7,8,9,10-octahydro-3,10a,11,13,14-pentaaza-6,9-methanonaphtho[1,8-ab]heptalen-2-yl)-4-(trifluoromethyl)aniline], the IC50 in assay [1] is 3.81 nM; in assay [2] it was 20.2 nM; in assay [3], 8.04 nM; in assay [8], 0.411 nM. Further, the EC50 stood at 2.77 nM in assay [4] (setting [9]), 109 nM in assay [5] (setting [10]), 18.3 nM in assay [6] (setting [11]) and 5.66 nM in assay [7] (setting [12]).
For the compound `C[C@H]1Cc2nc(-c3ccc(F)c4sc(N)c(C#N)c34)c(F)c3nc(OCC45CCCN4CCC5)nc(c23)N2C[C@@]3(F)CC[C@](F)(N3)[C@H]12` [Example 4-14, 2-amino-7-fluoro-4-((5S,5aS,6R,9S)-1,6,9-trifluoro-5-methyl-12-((tetrahydro-1H-pyrrolizin-7a(5H)-yl)methoxy)-4,5,5a,6,7,8,9,10-octahydro-3,10a,11,13,14-pentaaza-6,9-methanonaphtho[1,8-ab]heptalen-2-yl)benzo[b]thiophene-3-carbonitrile], the IC50 in assay [1] turned out to be 0.534 nM; in assay [2] it was 1.15 nM; in assay [3], 0.537 nM; in assay [8], 0.321 nM. Moreover, the EC50 stood at 10.6 nM in assay [4] (setting [9]), 40.2 nM in assay [5] (setting [10]), 5.29 nM in assay [6] (setting [11]) and 1.15 nM in assay [7] (setting [12]).
Consider `N#Cc1c(N)sc2c(F)ccc(-c3nc4c5c(nc(OC[C@@]67CCCN6C[C@H](F)C7)nc5c3F)N3C[C@@]5(F)CC[C@](F)(N5)[C@@H]3CC4)c12` [Example 4-21, 2-amino-7-fluoro-4-((5aS,6R,9S)-1,6,9-trifluoro-12-(((2R,7aS)-2-fluorotetrahydro-1H-pyrrolizin-7a(5H)-yl)methoxy)-4,5,5a,6,7,8,9,10-octahydro-3,10a,11,13,14-pentaaza-6,9-methanonaphtho[1,8-ab]heptalen-2-yl)benzo[b]thiophene-3-carbonitrile], for which the IC50 in assay [1] was 0.363 nM; in assay [2], 2.32 nM; in assay [3], 0.844 nM; in assay [8], 0.18 nM. The EC50 in assay [4] (setting [9]) was 1.73 nM; in assay [5] (setting [10]), 5.96 nM; in assay [6] (setting [11]), 1.1 nM; in assay [7] (setting [12]), 0.313 nM.
As to `Oc1cc(-c2nc3c4c(nc(OCC56CCCN5CCC6)nc4c2F)N2C[C@@]4(F)CC[C@](F)(N4)[C@H]2CCC3)c2c(OC(F)(F)F)c(F)ccc2c1` [Example 4-23, 6-fluoro-4-[(4S,7R,8R)-4,7,15-trifluoro-18-(1,2,3,5,6,7-hexahydropyrrolizin-8-ylmethoxy)-2,13,17,19,21-pentazapentacyclo[10.7.1.14,7.02,8.016,20]henicosa-1(19),12(20),13,15,17-pentaen-14-yl]-5-(trifluoromethoxy)naphthalen-2-ol], the IC50 stood at 0.592 nM in assay [1], 3.65 nM in assay [2], 2.14 nM in assay [3] and 0.502 nM in assay [8]. Further, the EC50 in assay [4] (setting [9]) stood at 2.6 nM; in assay [5] (setting [10]) it was 51.4 nM; in assay [6] (setting [11]), 6.87 nM; in assay [7] (setting [12]) it was 1.19 nM.
Regarding `Cn1ccc2cc(N)cc(-c3nc4c5c(nc(OCC67CCCN6CCC7)nc5c3F)N3C[C@@]5(F)CC[C@](F)(N5)[C@H]3CCC4)c2c1=O` [Example 4-25], the IC50 in assay [1], in assay [2], in assay [3] and in assay [8] was greater than 100 nM each time. The EC50 in assay [4] (setting [9]), in assay [5] (setting [10]), in assay [6] (setting [11]) and in assay [7] (setting [12]) was greater than 1000 nM throughout.
For `C/C=C\c1c(Cl)cc2[nH]ncc2c1-c1nc2c3c(nc(OCC45CCCN4CCC5)nc3c1F)N1C[C@@]3(F)CC[C@](F)(N3)[C@H]1CCC2` [Example 4-26, (4S,7R,8R)-14-[6-chloro-5-[(Z)-prop-1-enyl]-1H-indazol-4-yl]-4,7,15-trifluoro-18-(1,2,3,5,6,7-hexahydropyrrolizin-8-ylmethoxy)-2,13,17,19,21-pentazapentacyclo[10.7.1.14,7.02,8.016,20]henicosa-1(19),12(20),13,15,17-pentaene], the IC50 in assay [1] was determined as 1.24 nM; in assay [2] it was 6.69 nM; in assay [3], 4.33 nM; in assay [8], 1.85 nM. Besides, the EC50 in assay [4] (setting [9]) was 4.34 nM; in assay [5] (setting [10]), 45.4 nM; in assay [6] (setting [11]), 31.4 nM; in assay [7] (setting [12]), 0.785 nM.
For `C[C@H]1Cc2nc(-c3cc(O)cc4ccc(F)c(Cl)c34)c(F)c3nc(OCC45CCCN4CCC5)nc(c23)N2C[C@@]3(F)CC[C@](F)(N3)[C@H]12` [Example 4-30, 5-chloro-6-fluoro-4-((5S,5aS,6R,9S)-1,6,9-trifluoro-5-methyl-12-((tetrahydro-1H-pyrrolizin-7a(5H)-yl)methoxy)-4,5,5a,6,7,8,9,10-octahydro-3,10a,11,13,14-pentaaza-6,9-methanonaphtho[1,8-ab]heptalen-2-yl)naphthalen-2-ol], the IC50 in assay [1] worked out at 0.194 nM; in assay [2], 0.869 nM; in assay [3], 0.405 nM; in assay [8], 0.092 nM. The EC50 in assay [4] (setting [9]) came to 1.94 nM; in assay [5] (setting [10]), 18 nM; in assay [6] (setting [11]) it was 4.88 nM; in assay [7] (setting [12]), 0.365 nM.
On to `C#Cc1c(F)ccc2cc(N)cc(-c3nc4c5c(nc(OC[C@@]67CCCN6[C@H](COC(C(F)(F)F)(C(F)(F)F)C(F)(F)F)CC7)nc5c3F)N3C[C@@]5(F)CC[C@](F)(N5)[C@@H]3[C@@H](C)C4)c12` [Example 4-36, 5-ethynyl-6-fluoro-4-((5S,5aS,6R,9S)-1,6,9-trifluoro-12-(((3S,7aS)-3-(((1,1,1,3,3,3-hexafluoro-2-(trifluoromethyl)propan-2-yl)oxy)methyl)tetrahydro-1H-pyrrolizin-7a(5H)-yl)methoxy)-5-methyl-4,5,5a,6,7,8,9,10-octahydro-3,10a,11,13,14-pentaaza-6,9-methanonaphtho[1,8-ab]heptalen-2-yl)naphthalen-2-amine], for which the IC50 in assay [1], in assay [2], in assay [3] and in assay [8] was greater than 100 nM in each case. Further, the EC50 was 671 nM in assay [4] (setting [9]), greater than 1000 nM in assay [5] (setting [10]), greater than 1000 nM in assay [6] (setting [11]) and greater than 1000 nM in assay [7] (setting [12]).
